Target: Alpha-glucosidase MAL32 (Saccharomyces cerevisiae (strain ATCC 204508 / S288c), UniProt P38158)
Assay: α-Glucosidase Inhibition Assay
Conditions: pH 6.8; 37 °C
Protocol: Briefly, the sample solution (25 μL, 1.0 mM solution in DMSO) was mixed with enzyme solution (25 μL, 0.5 U/mL prepared in 0.1 M phosphate buffer, pH 6.8). […] After the incubation, the substrate p-nitrophenyl α-D-glucopyranoside (25 μL, 0.5 mM, 0.1 Mphosphate buffer, pH 6.8) was added to the mixture and allowed to incubate at 37 ± 1 °C for 30 min. The reaction was then terminated by the addition of aqueous solution of sodium carbonate (100 μL, 0.2 M). […] The uninhibited enzyme solution was taken as blank and an appropriate DMSO control was used. […] The concentration of DMSO in the final solution was maintained below 5.0% so that the enzyme activity was not destroyed.

Alpha-glucosidase MAL32, sequence (P38158 whole entry): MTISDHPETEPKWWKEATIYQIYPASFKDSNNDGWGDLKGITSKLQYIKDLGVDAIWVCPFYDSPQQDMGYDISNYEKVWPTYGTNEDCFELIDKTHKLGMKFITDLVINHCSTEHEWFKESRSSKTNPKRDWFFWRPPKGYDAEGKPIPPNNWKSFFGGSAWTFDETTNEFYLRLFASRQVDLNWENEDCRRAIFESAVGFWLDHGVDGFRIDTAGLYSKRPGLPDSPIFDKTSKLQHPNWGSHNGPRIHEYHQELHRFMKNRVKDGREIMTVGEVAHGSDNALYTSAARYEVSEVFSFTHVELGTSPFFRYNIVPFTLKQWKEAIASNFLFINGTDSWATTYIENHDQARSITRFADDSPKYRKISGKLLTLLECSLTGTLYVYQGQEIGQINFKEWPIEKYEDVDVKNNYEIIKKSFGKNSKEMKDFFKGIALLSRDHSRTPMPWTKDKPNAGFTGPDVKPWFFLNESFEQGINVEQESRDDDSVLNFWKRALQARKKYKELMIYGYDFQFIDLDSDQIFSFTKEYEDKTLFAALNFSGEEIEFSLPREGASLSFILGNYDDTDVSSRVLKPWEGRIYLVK

IC50: 148 µM
SMILES: O=C(CCc1cn(-c2ccc(O)cc2)nn1)N[C@@H]1OC(CO)[C@@H](O)C(O)C1O (stereo partly drawn) [3-[1-(4-Hydroxyphenyl)-1H-[1,2,3]triazol-4-yl]-N-(2,3,4,6-tetra-O-acetyl-β-D-glucopyranosyl)propanamide (4f)]

— BindingDB's records for doi:10.1016/j.bioorg.2017.03.006 (CSIR-Indian Institute of Chemical Biology, 2017)
